# Measurements as given in EP0574808A1, “Amidine-biphenyl derivatives, process for their production & medical preparation containing them” (Dr. Karl Thomae GmbH, priority 1992, dated 1993).
# System: Collagen-induzierte Thrombozytenaggregation
# Assay: Ex vivo inhibition of collagen-induced platelet aggregation after oral administration (Born and Cross photometric method)
# Conditions: oral 3 mg/kg, suspended in Natrosol; Rhesusaffen; Collagen 2 µg/ml in platelet-rich plasma
# Text: Beispielsweise wurden die Verbindungen der allgemeinen Formel I auf ihre biologischen Wirkungen wie folgt untersucht: Die Hemmung der Thrombozytenaggregation nach oraler Gabe der Prüfsubstanz wird ex vivo an Rhesusaffen ermittelt.
# Direkt vor der oralen Verabreichung der in Natrosol suspendierten Prüfsubstanz wird den Tieren eine Blutprobe aus der Kubitalvene als Referenzwert entnommen. Zu definierten Zeiten nach der Substanzgabe werden erneut Blutproben gewonnen und wie folgt untersucht.
# Das mit 3,14% Natriumcitrat im Volumenverhältnis 1:10 versetzte Vollblut wird mit 200 g für 15 Minuten zentrifugiert. Der Überstand an plättchenreichem Plasma wird vorsichtig abgehoben. Aus dem erythrozytenreichen Sediment wird durch Zentrifugation mit 4000 g für 10 Minuten das plättchenarme Plasma als Überstand gewonnen.
# Die mit Collagen (Hormonchemie, München; 2 µg/ml Endkonzentration im plättchenreichen Plasma) ausgelöste Thrombozytenaggregation in diesen ex vivo Proben wird nach der Methode von Born und Cross (J. Physiol. 170, 397 (1964)) photometrisch gemessen. Die nach Collagenstimulation gemessene größte Lichtdurchlässigkeit des plättchenreichen Plasmas wird mit dem Referenzwert verglichen, um die Hemmung der Aggregation zu den verschiedenen Zeitpunkten der Blutentnahme nach Substanzgabe relativ zum Referenzwert zu bestimmen.
smiles,measurement,value
"Cl.N=C(N)c1ccc(-c2ccc(C(=O)N3CCC(CC(=O)OC4CCCCC4)CC3)cc2)cc1 [Beispiel 1, 4-Amidino-4'-[4-(cyclohexyloxycarbonylmethyl)-piperidinocarbonyl]-biphenyl-hydrochlorid]",Dauer der Hemmung der Collagen-induzierten Thrombozytenaggregation ex vivo,> 4 Stunden
